Assays:
Type in all cases: cell-based
human keratinocytes [1] = assay: Cornified envelope (CE) formation, marker of terminal differentiation of keratinocytes
Experimental: (§1) Human keratinocytes, isolated from neonatal foreskin by trypsin treatment were grown in Dulbecco Modification Eagle (DME) Hams F12 (3:1) medium/5% fetal calf serum in the presence of mitomycin C treated 3T3 mouse fibroblasts for establishing dividing keratinocyte colonies. Cells were grown under the above condition until their second passage and kept frozen for future use. Frozen second passage keratinocytes were thawed and plated into the above medium and grown for five days. On day 5, when the cells were 70-80% confluent, they were trypsinized and plated in the serum-free medium for the various experiments.
During the process of terminal differentiation in the epidermis, a 15 nm thick layer of protein, known as the cornified envelope (CE)is formed on the inner surface of the cell periphery. The CE is composed of numerous distinct proteins which have been cross-linked together by the formation of N ^ε -(-γ-glutamyl) lysine isodipeptide bonds catalyzed by the action of at least two different transglutaminases expressed in the epidermis. Transglutaminase (TG-1) is expressed in abundance in the differentiated layers of the epidermis, especially the granular layer, but is absent in the undifferentiated basal epidermis. Thus, TG-1 is a useful marker of epidermal keratinocyte differentiation with high TG-1 levels indicating a more differentiated state. An ELISA based TG-1 assay, using a TG-1 antibody, was used to assess the state of differentiation of the cultured keratinocytes in the examples that follow.
Proper skin conditioning require enhanced proliferation and differentiation of epidermal keratinocytes. The different citrate esters were tested on their effect on cornified envelope (CE) formation, a marker of terminal differentiation of keratinocytes. Citrate esters were tested at 1 mM levels in medium containing 0.15 mM Ca. Levels are expressed as % of control ±SD. The CE formation for the control was 54.48 ±31.8 cpm/μg cell protein.

human keratinocytes [2] = assay: DNA synthesis in keratinocytes (3H-thymidine incorporation, keratinocyte proliferation)
Excerpt: The incorporation of ^3 H-thymidine by cultured keratinocytes was used as an assay of keratinocyte proliferation. Thymidine is one of four deoxynucleosides which are the monomeric units of DNA, the universal library of genetic information in the animal kingdom. Prior to cell division of a somatic cell such as a keratinocyte, the complete genome of the cell undergoing cell division is replicated. This involves large scale DNA synthesis by the cell and enables both daughter cells to receive identical copies of the genetic material. When ^3 H-thymidine is included in the culture media of keratinocytes which are synthesizing DNA in preparation for cell division then the labelled nucleoside is incorporated into the newly synthesized DNA. The extent of incorporation of ^3 H-thymidine into a population of cells is proportional to the rate of DNA synthesis by this population of cells and therefore an indication of their cellular proliferation.
1. Normal human keratinocytes isolated from neonatal foreskins by trypsin treatment were grown in DME medium/5% fetal calf serum in the presence of mitomycin C treated 3T3 mouse fibroblasts for establishing dividing keratinocyte colonies. Keratinocytes were grown under the above condition until their third passage.
2. For the experiments, third passage keratinocytes were plated into a serum-free keratinocyte growth medium (KGM; obtained from Clonetics, San Diego, Calif.) containing 0.09 mM calcium. 20,000 to 30,000 cells were plated into each well of 24 well cell culture plates and grown for 5 days, until the cells reach about 80% confluence.
3. Medium was changed to fresh medium and the various test materials were added to the medium from an ethanolic stock solution. The final ethanol concentration in the cultures was kept below 0.2%. Control cultures received no tested material but were dosed with 0.2% ethanol. Each compound or combination was tested in three separate wells. In four hours, 1 uCi of ^3 H-thymidine (Amersham Corp., Sp activity 40 Ci/mmol) was added to the 1 ml medium in each well. The cells were incubated overnight and 24 hours later the amount of ^3 H-thymidine associated with the cellular DNA of keratinocytes was assessed as described below.
4. The medium was aspirated, and the wells washed with 1 ml phosphate-buffered saline. The DNA and proteins of the cells in the plate were then precipitated by adding 1 ml of ice-cold 10% trichloroacetic acid (TCA). The plates were left on ice for 30 minutes to complete the precipitation process. TCA was then aspirated and each well was then washed four times with 5% TCA. The plates were then dried on a filter pad and the cells in the wells were dissolved in 0.5 ml of 0.1N sodium hydroxide. The sodium hydroxide was then neutralized using 0.1N hydrochloric acid and the solution (1 ml total volume) was then transferred to a scintillation vial. 50 μl samples from each vial were used for protein assay using BCA protein assay reagent obtained from Pierce Chemical Company. 8 ml of a scintillation fluid (Ecolume) was added to the rest of the solution in the vial, and the vials were counted in a scintillation counter to determine the amount of radioactivity in each vial. The DNA synthesis rate was then calculated as cpm ^3 H thymidine incorporated into total cellular DNA/microgram of cell protein for each individual well.

human keratinocytes [3] = assay: 3H choline incorporation into phospholipids of keratinocytes
Experimental: as §1
Choline acts as an essential nutrient for the cellular phospholipid biosynthesis of keratinocytes. Choline present in the medium is used up by the cells for phospholipid biosynthesis. If TCC provides choline for the cells it will complete with the choline in the medium for incorporation into cellular phospholipids. When cells are incubated with ^3 H-labelled choline, its incorporation into phospholipids will be decreased by the presence of unlabelled choline or TCC in the medium.
[…] The wells were washed, total lipids were extracted using Bleigh Dyer method as described above and the total counts in the chloroform phase was determined. To ascertain that the counts are present only in the phospholipid fraction, the amount of ^3 H choline incorporated into the different lipid fractions were quantitated by running TLC of the fractions in the above solvent system, and the amount of radioactivity in the phospholipid fraction (origin) was quantitated using BioScan plate reader. The cpm of ^3 H choline was plotted against the amount of cold choline or TCC added in the medium to assess the competition between choline supplied from TCC with ^3 H choline.
The amount of ^3 H choline incorporated into cellular phospholipids was determined and expressed as % of controls.

[4] = Homo sapiens, Keratinocyte, 24 h, read-out: Rate of DNA synthesis
[5] = Homo sapiens, Keratinocyte, 48 h, read-out: 3H choline incorporated into cellular phospholipids

SMILES: O=C(O)CC(O)(CC(=O)O)C(=O)O [Citric acid, citric acid]
- cornified envelope formation / keratinocyte differentiation, result in words (human keratinocytes [1]; 1 mM, 0.15 mM Ca): inhibited cornified envelope formation significantly
- activity at 1000 µM (human keratinocytes [1]; Homo sapiens, Keratinocyte, read-out: CE Levels): 13.7 ± 1.1%
- keratinocyte differentiation, result in words (human keratinocytes [1]; summary of Example 2): inhibit both proliferation and differentiation of keratinocytes
- activity at 0.1 µM (human keratinocytes [2]; [4]): 88.4 ± 15.5%
- activity at 1 µM (human keratinocytes [2]; [4]): 74.5 ± 32.2%
- activity at 10 µM (human keratinocytes [2]; [4]): 89.9 ± 20.3%
- activity at 100 µM (human keratinocytes [2]; [4]): 88.7 ± 5.1%
- activity at 1000 µM (human keratinocytes [2]; [4]): 63.9 ± 11.8%
- activity at 10000 µM (human keratinocytes [2]; [4]): 4.25 ± 2.2%
- keratinocyte proliferation, result in words (human keratinocytes [2]; summary in Example 2): inhibit both proliferation and differentiation of keratinocytes
- choline incorporation into phospholipid fraction, result in words (human keratinocytes [3]; 48 hours): no significant effect on choline incorporation into phospholipid fraction
- activity at 10 µM (human keratinocytes [3]; [5]): 91.4 ± 12.7%
- activity at 100 µM (human keratinocytes [3]; [5]): 77.5 ± 19.5%
- activity at 1000 µM (human keratinocytes [3]; [5]): 74.1 ± 28.8%

— patent US5571518A, “Cosmetic compositions containing tricholine citrate” (priority 1995, dated 1996)
